# Measured values reported in patent US10202361B2, “Pyridazinones as herbicides” (E I DU PONT DE NEMOURS AND COMPANY, priority 2014, dated 2019).
# Assays:
# [1] = test system: barnyardgrass (Echinochloa crus-galli); experiment: Test B flooded paddy test; type: in vivo; settings: Echinochloa crus-galli, 312 h, Flood, scale of 0 to 100, 0 is no effect, 100 is complete control, 13 to 15 d, read-out: Plant response rating, Barnyardgrass; for pest or weed control at 250 g/ha: 250 g ai/ha
# In short: (§1)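 Seedlings at 2 leaves are flooded to 3 cm, compound is added to the water, and that level is kept for the whole test. Plants stay in the greenhouse 13 to 15 d before visual comparison with controls, scored 0–100 where 100 means complete control.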
# [2] = test system: ducksalad (Heteranthera limosa); experiment: Test B flooded paddy test; type: in vivo; settings: Heteranthera limosa, 312 h, Flood, scale of 0 to 100, 0 is no effect, 100 is complete control, 13 to 15 d, read-out: Plant response rating, Ducksalad; for pest or weed control at 250 g/ha: 250 g ai/ha
# In short: as §1
Compound,pest or weed control at 250 g/ha [1],pest or weed control at 250 g/ha [2],pest or weed control at 125 g/ha ([1]; 125 g ai/ha),pest or weed control at 125 g/ha ([2]; 125 g ai/ha)
"Cc1cc(=O)n(-c2ccc(F)cc2)nc1Cn1ccc(C(F)(F)F)n1 [Compound 3, 2-(4-fluorophenyl)-5-methyl-6-[[3-(trifluoromethyl)-1H-pyrazol-1-yl]methyl]-3(2H)-pyridazinone]",0%,0%,–,–
"Cc1cc(=O)n(-c2ccc(C(F)(F)F)cc2)nc1Oc1ccnc(C(F)(F)F)c1 [Compound 5, 5-methyl-2-[4-(trifluoromethyl)phenyl]-6-[[2-(trifluoromethyl)-4-pyridinyl]oxy]-3(2H)-pyridazinone]",–,–,55%,75%
"CCOc1cc(=O)n(-c2ccc(F)cc2)nc1C(=O)c1ccnc(C(F)(F)F)c1 [Compound 22, 5-ethoxy-2-(4-fluorophenyl)-6-[[2-(trifluoromethyl)-4-pyridinyl]carbonyl]-3(2H)-pyridazinone]",10%,70%,–,–
